# Tested on: P388
# Assay: Cytotoxicity against mouse P388 cells
# Type: functional
row,Compound,Activity
1,CONCCCCCCCCCCCCc1cccnc1 [HACHIJODINE A],2.2 µg/mL
2,CONCCC(C)CCCCCCCCCc1cccnc1 (configuration not stated) [HACHIJODINE B],2.2 µg/mL
3,CONCC(C)CCCCCCCCCCc1cccnc1 (configuration not stated) [HACHIJODINE C],2.2 µg/mL
4,CONCCCCCCCCCCC(C)Cc1cccnc1 (configuration not stated) [HACHIJODINE D],2.2 µg/mL
5,CN(O)CCCCCCCCCCCCCc1cccnc1 [HACHIJODINE E],2.3 µg/mL
6,CN(O)CCCCCCCCC#CCCCCc1cccnc1 [HACHIJODINE F],1 µg/mL
7,CN(O)CCCCCCCC/C=C\C#CCCCCc1cccnc1 [HACHIJODINE G],1 µg/mL
